According to the supplement of paper PMC11451515:

System: SEM cells
Experiment: cell viability relative to DMSO control; higher = less cytotoxic
Conditions: 48 h
In short: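 Three leukemia lines were tested: NOMO1 and SEM at 500 cells/well and P12-Ichikawa at 1000 cells/well. Each was adapted for at least four passages in each medium and seeded in 5 μl in 1536-well plates, and library compounds in DMSO were pin-dosed from 47 μM to 0.79 nM in 11 threefold steps. After 48 h at 37°C, CellTiter-Glo One luminescence was read. Viability is a percentage relative to DMSO wells on each plate, with cell-free wells as background.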

[1] = HPLM + 10% dialyzed FBS, 0.000781 µM
[2] = HPLM + 10% dialyzed FBS, 0.00234 µM
[3] = HPLM + 10% dialyzed FBS, 0.00702 µM
[4] = HPLM + 10% dialyzed FBS, 0.0211 µM
[5] = HPLM + 10% dialyzed FBS, 0.0632 µM
[6] = HPLM + 10% dialyzed FBS, 0.19 µM
[7] = HPLM + 10% dialyzed FBS, 0.569 µM
[8] = HPLM + 10% dialyzed FBS, 1.71 µM
[9] = HPLM + 10% dialyzed FBS, 5.12 µM
[10] = HPLM + 10% dialyzed FBS, 15.4 µM
[11] = HPLM + 10% dialyzed FBS, 46.1 µM
[12] = RPMI 5 mM glucose + 10% FBS, 0.000781 µM
[13] = RPMI 5 mM glucose + 10% FBS, 0.00234 µM
[14] = RPMI 5 mM glucose + 10% FBS, 0.00702 µM
[15] = RPMI 5 mM glucose + 10% FBS, 0.0211 µM
[16] = RPMI 5 mM glucose + 10% FBS, 0.0632 µM
[17] = RPMI 5 mM glucose + 10% FBS, 0.19 µM
[18] = RPMI 5 mM glucose + 10% FBS, 0.569 µM
[19] = RPMI 5 mM glucose + 10% FBS, 1.71 µM
[20] = RPMI 5 mM glucose + 10% FBS, 5.12 µM
[21] = RPMI 5 mM glucose + 10% FBS, 15.4 µM
[22] = RPMI 5 mM glucose + 10% FBS, 46.1 µM
[23] = RPMI 5 mM glucose + 10% dialyzed FBS, 0.000781 µM
[24] = RPMI 5 mM glucose + 10% dialyzed FBS, 0.00234 µM
[25] = RPMI 5 mM glucose + 10% dialyzed FBS, 0.00702 µM
[26] = RPMI 5 mM glucose + 10% dialyzed FBS, 0.0211 µM
[27] = RPMI 5 mM glucose + 10% dialyzed FBS, 0.0632 µM
[28] = RPMI 5 mM glucose + 10% dialyzed FBS, 0.19 µM
[29] = RPMI 5 mM glucose + 10% dialyzed FBS, 0.569 µM
[30] = RPMI 5 mM glucose + 10% dialyzed FBS, 1.71 µM
[31] = RPMI 5 mM glucose + 10% dialyzed FBS, 5.12 µM
[32] = RPMI 5 mM glucose + 10% dialyzed FBS, 15.4 µM
[33] = RPMI 5 mM glucose + 10% dialyzed FBS, 46.1 µM

| Structure (SMILES) | cell viability [1] | cell viability [2] | cell viability [3] | cell viability [4] | cell viability [5] | cell viability [6] | cell viability [7] | cell viability [8] | cell viability [9] | cell viability [10] | cell viability [11] | cell viability [12] | cell viability [13] | cell viability [14] | cell viability [15] | cell viability [16] | cell viability [17] | cell viability [18] | cell viability [19] | cell viability [20] | cell viability [21] | cell viability [22] | cell viability [23] | cell viability [24] | cell viability [25] | cell viability [26] | cell viability [27] | cell viability [28] | cell viability [29] | cell viability [30] | cell viability [31] | cell viability [32] | cell viability [33] |
| --- | --- | --- | --- | --- | --- | --- | --- | --- | --- | --- | --- | --- | --- | --- | --- | --- | --- | --- | --- | --- | --- | --- | --- | --- | --- | --- | --- | --- | --- | --- | --- | --- | --- |
| CC(C)OC(=O)[C@H](C)N[P@](=O)(OC[C@H]1O[C@@H](N2\C=C/C(=O)NC2=O)[C@](C)(F)[C@@H]1O)OC3=CC=CC=C3 | 105% | 111% | 122% | 120% | 99.4% | 131% | 106% | 98.4% | 57.7% | 17.6% | 18.5% | 125% | 120% | 130% | 122% | 121% | 125% | 125% | 120% | 88.1% | 14.3% | 9.48% | 101% | 109% | 106% | 120% | 111% | 115% | 107% | 105% | 86.8% | 17.3% | 9.7% |
| COc1ccc(C(=O)c2c(C)n(CCN3CCOCC3)c3cc(I)ccc23)cc1 | 85.3% | 102% | 111% | 109% | 105% | 110% | 103% | 93.8% | 98.5% | 91.7% | 66.4% | 88% | 108% | 104% | 93.6% | 106% | 111% | 107% | 111% | 96.4% | 95.1% | 52% | 102% | 93.5% | 117% | 115% | 115% | 123% | 132% | 129% | 107% | 99.1% | 60.3% |
| CC(N[C@H]1CCCC[C@@H]1NC(=O)c1ccc(Cl)cc1)c1cccc2ccccc12 (stereo partly specified) | 98.2% | 105% | 110% | 114% | 111% | 112% | 101% | 115% | 112% | 118% | 119% | 92.2% | 102% | 109% | 120% | 107% | 108% | 121% | 113% | 119% | 138% | 110% | 120% | 112% | 109% | 114% | 116% | 114% | 125% | 127% | 115% | 133% | 121% |
| CC(C)c1cc(C(C)C)c(CC(=O)N[S+](=O)([O-])Oc2c(C(C)C)cccc2C(C)C)c(C(C)C)c1 | 93.7% | 108% | 107% | 96.2% | 100% | 106% | 108% | 102% | 99.7% | 99% | 95.1% | 114% | 119% | 114% | 121% | 114% | 121% | 116% | 115% | 130% | 122% | 115% | 90.5% | 104% | 103% | 104% | 108% | 104% | 103% | 97.3% | 96.8% | 88.6% | 93.3% |
| CN1CC(=O)N2[C@H](c3ccc4c(c3)OCO4)c3[nH]c4ccccc4c3C[C@@H]2C1=O | 98.8% | 88.6% | 97.2% | 96.3% | 98% | 102% | 108% | 106% | 93.9% | 100% | 85.9% | 92.6% | 85.3% | 85.8% | 97.9% | 102% | 108% | 92.6% | 88.8% | 82.1% | 85.3% | 83.5% | 94% | 88.8% | 88.3% | 108% | 106% | 69.6% | 105% | 113% | 105% | 89% | 95.4% |
| COc1ccc2c(c1)[C@]13CCCCC1C(C2)N(C)CC3 (stereo partly specified) | 102% | 116% | 113% | 106% | 116% | 112% | 103% | 100% | 128% | 111% | 129% | 106% | 105% | 115% | 115% | 111% | 126% | 110% | 113% | 126% | 126% | 123% | 101% | 103% | 106% | 114% | 108% | 114% | 118% | 109% | 117% | 108% | 114% |
| COC1=C(OCCCN2CCOCC2)C=C3N=CC=C(OC4=CC=C(C=C4F)\C5=C\N=C(\NC6=CC=C(F)C=C6)N(C)C5=O)C3=C1 | 110% | 112% | 110% | 91.7% | 68.9% | 57.7% | 59% | 52.4% | 47.8% | 40.7% | 5.64% | 103% | 108% | 113% | 81.2% | 79.4% | 65.2% | 46.7% | 56.5% | 52.6% | 37.6% | 1.97% | 110% | 116% | 103% | 77.9% | 73.8% | 52% | 45.9% | 44% | 43% | 34.8% | 3.15% |
